# How the values were obtained:
# [1] = tested on: cell lines; assay: Toxicity on cell lines seen in the antiviral experiments; settings: 8% PVA + glutaraldehyde coatings
# [2] = tested on: cell lines
# [3] = tested on: murine coronavirus (MHV); assay: Powdered alcohol mixed directly with MHV, L929 cell infection/TCID50 assay; assay type: cell-based, Mouse Hepatitis Virus; settings: FIG. 6; CD encapsulated ethanol vs gamma-CD alone
# Procedure: The powders obtained in Example 1 were tested for their effectiveness in inactivating the murine coronavirus in 5 minutes using L929 cells. L929 cells at 5×10^5 cells/ml concentration in 100 μl volume in a 96 wells format were used. First, the virus stock was diluted 10 times in 1×PBS. Then 20 μl MHV (multiplicity of infection [MOI] 3.0) was mixed with 10 mg and 20 mg powdered alcohol for 5 minutes at room temperature with repetitive pipetting to maximise the interaction between the virus and powdered alcohol. To mitigate the potential side effects of the powdered alcohol on L929 cells, powder treated cell culture media (cDMEM) was prepared as a control. After recovering the virus and the control media from the mixture, treated samples (triplicates) were immediately diluted in 20 μl cDMEM, thereby bringing the final MOI to 1.0. In a 96 wells format, 8 serial dilutions (DF=5.0) were prepared per sample together with non-treated virus and cell culture media (cDMEM) as positive and negative controls, respectively. Cell infection phenotype as cell death and cytopathic effect (CPE) was observed under a benchtop light microscope (20× magnification) at 24-, 48- and 72-hours post infection (hpi) intervals (FIG. 4). TCID50/ml values per experiment were calculated at 72 hpi using Reed&Muench Calculator. […]
compound,measurement,setting,value
O=CCCCC=O [glutaraldehyde],glutaraldehyde concentration above which toxicity on cell lines was observed,[1],higher than 0.7%
"OCl [HOCl, hypochlorous acid]",cell death and toxicity,[2],cell death and toxicity were observed
"OC[C@H]1O[C@@H]2O[C@H]3[C@H](O)[C@@H](O)[C@@H](O[C@H]4[C@H](O)[C@@H](O)[C@@H](O[C@H]5[C@H](O)[C@@H](O)[C@@H](O[C@H]6[C@H](O)[C@@H](O)[C@@H](O[C@H]7[C@H](O)[C@@H](O)[C@@H](O[C@H]8[C@H](O)[C@@H](O)[C@@H](O[C@H]9[C@H](O)[C@@H](O)[C@@H](O[C@H]1[C@H](O)[C@H]2O)O[C@@H]9CO)O[C@@H]8CO)O[C@@H]7CO)O[C@@H]6CO)O[C@@H]5CO)O[C@@H]4CO)O[C@@H]3CO [CD alone, gamma-cyclodextrin]",log reduction,[3],1 log
